In patent US20240384268A1, “Oligonucleotides” (Hudson Institute of Medical Research, priority 2021, published 2024):

What follows are sequences tested against T1, TLR8 (Homo sapiens, UniProt Q9NR97) (assay: HEK-TLR8 NF-κB-luciferase reporter, R848 or Motolimod stimulation (potentiation or inhibition)). Conditions: MOE-modified ASO at 100 nM; averaged NF-κB-Luciferase relative to R848 condition (fold increase).
T1 sequence (Q9NR97 27-1041): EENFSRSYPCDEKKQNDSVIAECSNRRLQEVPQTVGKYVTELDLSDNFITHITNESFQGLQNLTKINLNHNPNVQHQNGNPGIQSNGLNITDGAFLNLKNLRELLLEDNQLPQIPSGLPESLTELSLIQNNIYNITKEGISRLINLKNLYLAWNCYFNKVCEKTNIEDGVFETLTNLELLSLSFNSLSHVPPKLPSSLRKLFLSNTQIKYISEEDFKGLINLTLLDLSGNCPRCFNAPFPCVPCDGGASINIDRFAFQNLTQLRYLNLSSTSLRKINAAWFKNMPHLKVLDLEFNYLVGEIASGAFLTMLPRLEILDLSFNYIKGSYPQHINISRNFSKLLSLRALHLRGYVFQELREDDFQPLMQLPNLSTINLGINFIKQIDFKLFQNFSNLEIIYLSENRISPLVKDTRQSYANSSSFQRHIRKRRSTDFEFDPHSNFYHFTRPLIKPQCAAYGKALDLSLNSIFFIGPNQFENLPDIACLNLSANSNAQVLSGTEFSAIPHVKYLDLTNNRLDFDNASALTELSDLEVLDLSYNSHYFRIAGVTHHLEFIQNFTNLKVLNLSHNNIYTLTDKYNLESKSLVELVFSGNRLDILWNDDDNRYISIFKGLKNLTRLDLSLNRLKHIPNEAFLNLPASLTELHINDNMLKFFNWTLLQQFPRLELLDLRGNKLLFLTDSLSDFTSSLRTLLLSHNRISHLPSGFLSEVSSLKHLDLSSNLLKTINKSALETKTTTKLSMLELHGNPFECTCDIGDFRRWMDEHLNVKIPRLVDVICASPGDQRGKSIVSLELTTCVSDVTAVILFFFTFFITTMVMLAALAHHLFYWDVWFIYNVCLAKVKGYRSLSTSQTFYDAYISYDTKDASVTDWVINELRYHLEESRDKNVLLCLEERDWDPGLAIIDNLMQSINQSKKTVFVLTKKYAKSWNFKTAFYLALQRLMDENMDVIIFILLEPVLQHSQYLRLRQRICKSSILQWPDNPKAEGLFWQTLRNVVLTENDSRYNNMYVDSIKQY
Format: cell-based
Parameters: expressed in transfected cells; host or cells: 293XLhTLR8 (HEK293)

Row | Sequence | TLR8 100 nM
1 | GTCCTTGCACGTGGCTTCGT (antisense; 2'-MOE modified, pattern not given here) [EGFR-1013 MOE] | 1.900
2 | GTCTTGGCTTCGTGGAGCAG (antisense; 2'-MOE modified, pattern not given here) [MB21D1-520 MOE] | 2.383
3 | GTGTCCTTGCACGTGGCTTC (antisense; 2'-MOE modified, pattern not given here) [EGFR-1015 MOE] | 1.383
4 | GTGTCTTCATCGGCCCTGCC (antisense; 2'-MOE modified, pattern not given here) [CAMSAP1-2113 MOE] | 1.247
5 | TAGGCACTTTGCCTCCTTCT (antisense; 2'-MOE modified, pattern not given here) [EGFR-2859 MOE] | 0.773
6 | TAGTCAAGGGCATATCCTAC (antisense; 2'-MOE modified, pattern not given here) [HPRT-732 MOE] | 1.457
7 | TCAAAGGACTGAGGAAAGGG (antisense; 2'-MOE modified, pattern not given here) [CAMSAP1-6273 MOE] | 3.896
8 | TCCAACACTTCGTGGGGTCC (antisense; 2'-MOE modified, pattern not given here) [HPRT-667 MOE] | 1.142
9 | TCGCACTTCAGTCTGAGCAG (antisense; 2'-MOE modified, pattern not given here) [MB21D1-719 MOE] | 1.697
10 | TGTCCTTGCACGTGGCTTCG (antisense; 2'-MOE modified, pattern not given here) [EGFR-1014 MOE] | 1.187
11 | TGTCTTCATCGGCCCTGCCT (antisense; 2'-MOE modified, pattern not given here) [CAMSAP1-2112 MOE] | 1.331
12 | TGTGATGGCCTCCCATCTCC (antisense; 2'-MOE modified, pattern not given here) [HPRT-332 MOE] | 0.940
13 | TTCTGCAGCTTCCTTGTCCT (antisense; 2'-MOE modified, pattern not given here) [CTNN2B-2136 MOE] | 2.049
14 | TTGCACACTTCGTACCCAAA (antisense; 2'-MOE modified, pattern not given here) [CAMSAP1-4915 MOE] | 1.555
15 | TTGCCATGCTGGCTCGGACT (antisense; 2'-MOE modified, pattern not given here) [CAMSAP1-2584 MOE] | 0.881
16 | TTGGCTCGGCTTGCCTACTT (antisense; 2'-MOE modified, pattern not given here) [CAMSAP1-5594 MOE] | 1.096

Same assay, conditions: MOE-modified ASO at 500 nM; averaged NF-κB-Luciferase relative to R848 condition (fold increase)

Row | Sequence | TLR8 500 nM
17 | GTCCTTGCACGTGGCTTCGT (antisense; 2'-MOE modified, pattern not given here) [EGFR-1013 MOE] | 1.593
18 | GTCTTGGCTTCGTGGAGCAG (antisense; 2'-MOE modified, pattern not given here) [MB21D1-520 MOE] | 3.536
19 | GTGTCCTTGCACGTGGCTTC (antisense; 2'-MOE modified, pattern not given here) [EGFR-1015 MOE] | 1.274
20 | GTGTCTTCATCGGCCCTGCC (antisense; 2'-MOE modified, pattern not given here) [CAMSAP1-2113 MOE] | 1.093
21 | TAGGCACTTTGCCTCCTTCT (antisense; 2'-MOE modified, pattern not given here) [EGFR-2859 MOE] | 0.884
22 | TAGTCAAGGGCATATCCTAC (antisense; 2'-MOE modified, pattern not given here) [HPRT-732 MOE] | 2.087
23 | TCAAAGGACTGAGGAAAGGG (antisense; 2'-MOE modified, pattern not given here) [CAMSAP1-6273 MOE] | 3.406
24 | TCCAACACTTCGTGGGGTCC (antisense; 2'-MOE modified, pattern not given here) [HPRT-667 MOE] | 1.432
25 | TCGCACTTCAGTCTGAGCAG (antisense; 2'-MOE modified, pattern not given here) [MB21D1-719 MOE] | 2.158
26 | TGTCCTTGCACGTGGCTTCG (antisense; 2'-MOE modified, pattern not given here) [EGFR-1014 MOE] | 1.433
27 | TGTCTTCATCGGCCCTGCCT (antisense; 2'-MOE modified, pattern not given here) [CAMSAP1-2112 MOE] | 1.178
28 | TGTGATGGCCTCCCATCTCC (antisense; 2'-MOE modified, pattern not given here) [HPRT-332 MOE] | 0.938
29 | TTCTGCAGCTTCCTTGTCCT (antisense; 2'-MOE modified, pattern not given here) [CTNN2B-2136 MOE] | 2.408
30 | TTGCACACTTCGTACCCAAA (antisense; 2'-MOE modified, pattern not given here) [CAMSAP1-4915 MOE] | 1.972
31 | TTGCCATGCTGGCTCGGACT (antisense; 2'-MOE modified, pattern not given here) [CAMSAP1-2584 MOE] | 0.572
32 | TTGGCTCGGCTTGCCTACTT (antisense; 2'-MOE modified, pattern not given here) [CAMSAP1-5594 MOE] | 0.813
